Where a SMILES comes first, the peptide text is derived from it.
System: ERG 1-2 molecule
Assay: Cell differentiation marker ERG 1-2 in HaCat keratinocytes, immunofluorescence
Assay type: cell-based
Settings: HaCat human keratinocytes, at 24 hours

## N=C(N)NCCC[C@H](N)C(=O)NCC(=O)N[C@@H](CO)C(=O)O [Arg-Gly-Ser] (H-Arg-Gly-Ser-OH)
  quantity of ERG molecules present in the cells (intensity of fluorescence), cell differentiation: increases the quantity of ERG molecules

Reference: patent US20080227725A1, “Cosmetic or pharmaceutical composition comprising peptides, uses and treatment processes” (priority 2002, published 2008)
